Measured values: patent US8039453B2, “Vinca derivatives” (priority 2006, dated 2011)
Where two headings read alike, the source gives them in different places.

Test system: HeLa S-3 human cervical carcinoma cell line
Experiment: HeLa GI50 determination (SRB growth inhibition)
Format: cell-based
Details: HeLa S3, 48 h, read-out: HeLa Cells GI50
Description: A. HeLa GI50 Determinations
Growth inhibition (GI50) values were measured on the human cervical carcinoma cell line, HeLa S-3, which were selected for growth on plastic. The HeLa cell assay was based on the description of Skehan et al., J. Natl. Cancer Inst., 82:1107-12 (1990), which is hereby incorporated by reference in its entirety. HeLa cells were plated at 2×10^4 cells/well in 96 well plates. One day later, a control plate was fixed by the addition of TCA to 5%. After five rinses with tap water, the plate was air-dried and stored at 4° C. Test compounds were added to the remaining plates at 10-fold dilutions. Two days later, all plates were fixed as described above. Cells were then stained by the addition of 100 μL per well of 0.4% sulforhodamine B (SRB) in 1% acetic acid for 30 min at 4° C. Wells were then quickly rinsed 5× with 1% acetic acid and allowed to air dry. The SRB was then solubilized by the addition of 100 μL per well of unbuffered 10 mM Tris base. Dye was quantified by measuring absorbance at 490 nm on a Molecular Devices microplate reader. Growth inhibition was calculated according to the following equation: GI=100×(T−T0)/(C−T0), where the optical density (OD) of the test well after 2 days of treatment was T, the OD of the wells in the control plate on day 0 was T0 and C was the OD of untreated wells. Plots of percent growth inhibition versus inhibitor concentration were used to determine the GI50.

[1] = HeLa S-3 cells, 2 days of treatment, sulforhodamine B staining

Row | SMILES | GI50 [1] [nM] | GI50 [nM]
1 | CCc1ccc2[nH]c3c(c2c1)CCN1CC(C(C)(F)F)C[C@@H](C1)C[C@]3(C(=O)OC)c1cc2c(cc1OC)N(C)[C@H]1[C@@](O)(C(=O)OC)[C@H](OC(C)=O)[C@]3(CC)C=CCN4CC[C@]21[C@@H]43 (stereo partly drawn) [Example 3, 12′-Ethyl-4′-deoxy-20′,20′-diflurovincaleukoblastine] | > 1000 | –
2 | CC[C@]12C=CCN3CC[C@@]4(c5cc([C@@]6(C(=O)OC)C[C@H]7CC(C(C)(F)F)CN(CCc8c6[nH]c6ccc(SC)cc86)C7)c(OC)cc5N(C)[C@H]4[C@@](O)(C(=O)OC)[C@@H]1OC(C)=O)[C@@H]32 (stereo partly drawn) [Example 12, 12′-(Methylsulfanyl)-4′-deoxy-20′,20′-diflurovincaleukoblastine] | 93 | –
3 | CC[C@]12C=CCN3CC[C@@]4(c5cc([C@@]6(C(=O)OC)C[C@H]7CC(C(C)(F)F)CN(CCc8c6[nH]c6ccc(-c9ccccc9)cc86)C7)c(OC)cc5N(C)[C@H]4[C@@](O)(C(=O)OC)[C@@H]1OC(C)=O)[C@@H]32 (stereo partly drawn) [Example 6, 12′-Phenyl-4′-deoxy-20′,20′-diflurovincaleukoblastine] | – | 23100
